Tested on: LG0567-F671-PDC KRAS tumor spheroid viability
Test: Anticancer human tumor LG0567-F671-PDC patient-derived lung adenocarcinoma cell line growth inhibition [KRAS2]
Details: spheroids with HUVEC and MSC; for IC50: curve of first compound; for viability, T/C: stronger effect = lower value
How it was run: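 KRAS-mutant tumor cells were grown as spheroids with HUVEC endothelial cells and human MSCs as stroma. Targeted agents were tested alone and with KRAS pathway inhibitors. Doses started at or near clinical Cmax, or 10 microM, descending half-log.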

[1] = second compound 0.1 µM, first compound 0.0316 µM
[2] = second compound 0.1 µM, first compound 0.1 µM
[3] = second compound 0.1 µM, first compound 0.316 µM
[4] = second compound 0.1 µM, first compound 1 µM
[5] = second compound 0.1 µM, first compound 3.16 µM
[6] = second compound 0.1 µM, first compound 10 µM
[7] = second compound 0.316 µM, first compound 0.0316 µM
[8] = second compound 0.316 µM, first compound 0.1 µM
[9] = second compound 0.316 µM, first compound 0.316 µM
[10] = second compound 0.316 µM, first compound 1 µM
[11] = second compound 0.316 µM, first compound 3.16 µM
[12] = second compound 0.316 µM, first compound 10 µM
[13] = second compound 1 µM, first compound 0.0316 µM
[14] = second compound 1 µM, first compound 0.1 µM
[15] = second compound 1 µM, first compound 0.316 µM
[16] = second compound 1 µM, first compound 1 µM
[17] = second compound 1 µM, first compound 3.16 µM
[18] = second compound 1 µM, first compound 10 µM
[19] = second compound 3.16 µM, first compound 0.0316 µM
[20] = second compound 3.16 µM, first compound 0.1 µM
[21] = second compound 3.16 µM, first compound 0.316 µM
[22] = second compound 3.16 µM, first compound 1 µM
[23] = second compound 3.16 µM, first compound 3.16 µM
[24] = second compound 3.16 µM, first compound 10 µM
[25] = second compound 10 µM, first compound 0.0316 µM
[26] = second compound 10 µM, first compound 0.1 µM
[27] = second compound 10 µM, first compound 0.316 µM
[28] = second compound 10 µM, first compound 1 µM
[29] = second compound 10 µM, first compound 3.16 µM
[30] = second compound 10 µM, first compound 10 µM
[31] = second compound 0.1 µM, first compound 0.000316 µM
[32] = second compound 0.1 µM, first compound 0.001 µM
[33] = second compound 0.1 µM, first compound 0.00316 µM
[34] = second compound 0.1 µM, first compound 0.01 µM
[35] = second compound 0.316 µM, first compound 0.000316 µM
[36] = second compound 0.316 µM, first compound 0.001 µM
[37] = second compound 0.316 µM, first compound 0.00316 µM
[38] = second compound 0.316 µM, first compound 0.01 µM
[39] = second compound 1 µM, first compound 0.000316 µM
[40] = second compound 1 µM, first compound 0.001 µM
[41] = second compound 1 µM, first compound 0.00316 µM
[42] = second compound 1 µM, first compound 0.01 µM
[43] = second compound 3.16 µM, first compound 0.000316 µM
[44] = second compound 3.16 µM, first compound 0.001 µM
[45] = second compound 3.16 µM, first compound 0.00316 µM
[46] = second compound 3.16 µM, first compound 0.01 µM
[47] = second compound 10 µM, first compound 0.000316 µM
[48] = second compound 10 µM, first compound 0.001 µM
[49] = second compound 10 µM, first compound 0.00316 µM
[50] = second compound 10 µM, first compound 0.01 µM
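Note: drug exposure lasted seven days after spheroids formed for three days.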
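Throughout, for viability, T/C: 100% = DMSO vehicle control viability.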

SMILES | IC50 (second compound 0.1 µM) [nM] | IC50 (second compound 0.316 µM) [nM] | IC50 (second compound 1 µM) [nM] | IC50 (second compound 3.16 µM) [nM] | IC50 (second compound 10 µM) [nM] | viability, T/C [1] [%] | viability, T/C [2] [%] | viability, T/C [3] [%] | viability, T/C [4] [%] | viability, T/C [5] [%] | viability, T/C [6] [%] | viability, T/C [7] [%] | viability, T/C [8] [%] | viability, T/C [9] [%] | viability, T/C [13] [%] | viability, T/C [14] [%] | viability, T/C [19] [%] | viability, T/C [20] [%] | viability, T/C [25] [%] | viability, T/C [26] [%] | further results
CC(C)NCC(C(=O)N1CCN(c2ncnc3c2C(C)CC3O)CC1)c1ccc(Cl)cc1 (stereo not given) + CNCc1ccccc1-c1csc(C(C)Nc2nc(C)nc3cc(OC)c(OC)cc23)c1 | > 10000 | > 10000 | 675 | < 31.6 | < 31.6 | 78.9 | 72.3 | 53 | 62 | 70.9 | 61.6 | 68.2 | 54.6 | 46.7 | 60.4 | 63.5 | 0.25 | 0.18 | 0.84 | 0.44 | viability, T/C [10]: 54.5%; viability, T/C [11]: 59.1%; viability, T/C [12]: 54.6%; viability, T/C [15]: 52.3%; viability, T/C [16]: 42.8%; viability, T/C [17]: 48.3%; viability, T/C [18]: 42.2%; viability, T/C [21]: 0.11%; viability, T/C [22]: 1.4%; viability, T/C [23]: 0.12%; viability, T/C [24]: 0.97%; viability, T/C [27]: 0.13%; viability, T/C [28]: 0.12%; viability, T/C [29]: 2.26%; viability, T/C [30]: 0.6%
CC(C)n1nc(-c2ccc3oc(N)nc3c2)c2c(N)ncnc21 + CNCc1ccccc1-c1csc(C(C)Nc2nc(C)nc3cc(OC)c(OC)cc23)c1 | 58.7 | 10.7 | 5.7 | < 0.316 | < 0.316 | 53.8 | 47.3 | – | – | – | – | 42.6 | 37.4 | – | 32.1 | 23.2 | 10.3 | 6 | 10.9 | 0.33 | viability, T/C [31]: 72.7%; viability, T/C [32]: 76.2%; viability, T/C [33]: 65.5%; viability, T/C [34]: 58.6%; viability, T/C [35]: 70.3%; viability, T/C [36]: 65.5%; viability, T/C [37]: 59%; viability, T/C [38]: 49%; viability, T/C [39]: 70.8%; viability, T/C [40]: 73.6%; viability, T/C [41]: 52.5%; viability, T/C [42]: 44.5%; viability, T/C [43]: 0.52%; viability, T/C [44]: 1.53%; viability, T/C [45]: 2.23%; viability, T/C [46]: 0.27%; viability, T/C [47]: 1.29%; viability, T/C [48]: 0.51%; viability, T/C [49]: 0.14%; viability, T/C [50]: 1.07%
CC1(C)CCC(CN2CCN(c3ccc(C(=O)NS(=O)(=O)c4ccc(NCC5CCOCC5)c([N+](=O)[O-])c4)c(Oc4cnc5[nH]ccc5c4)c3)CC2)=C(c2ccc(Cl)cc2)C1 + CNCc1ccccc1-c1csc(C(C)Nc2nc(C)nc3cc(OC)c(OC)cc23)c1 | 1630 | 1470 | 1420 | < 31.6 | < 31.6 | 72.6 | 68.1 | 70.6 | 71.3 | 22 | 10.7 | 69.5 | 63.9 | 61.2 | 69.4 | 77.7 | 0.33 | 0.44 | 0.43 | 0.89 | viability, T/C [10]: 70.2%; viability, T/C [11]: 17.9%; viability, T/C [12]: 8.6%; viability, T/C [15]: 62%; viability, T/C [16]: 64.3%; viability, T/C [17]: 18.3%; viability, T/C [18]: 2.9%; viability, T/C [21]: 0.44%; viability, T/C [22]: 2.14%; viability, T/C [23]: 1.73%; viability, T/C [24]: 0.34%; viability, T/C [27]: 0.6%; viability, T/C [28]: 0.39%; viability, T/C [29]: 2.18%; viability, T/C [30]: 0.44%
COc1cc2nccc(Oc3ccc(NC(=O)C4(C(=O)Nc5ccc(F)cc5)CC4)cc3)c2cc1OC + CNCc1ccccc1-c1csc(C(C)Nc2nc(C)nc3cc(OC)c(OC)cc23)c1 | > 10000 | 541 | 197 | < 31.6 | < 31.6 | 78.2 | 66.5 | 56.8 | 49.6 | 33.1 | 88.5 | 65.8 | 58.8 | 51.8 | 55 | 58.2 | 0.31 | 0.25 | 0.63 | 0.38 | viability, T/C [10]: 39.6%; viability, T/C [11]: 27.2%; viability, T/C [12]: 75.7%; viability, T/C [15]: 45.4%; viability, T/C [16]: 27.8%; viability, T/C [17]: 23.1%; viability, T/C [18]: 38%; viability, T/C [21]: 0.87%; viability, T/C [22]: 0.11%; viability, T/C [23]: 0.21%; viability, T/C [24]: 0.7%; viability, T/C [27]: 0.97%; viability, T/C [28]: 0.33%; viability, T/C [29]: 2.44%; viability, T/C [30]: 0.91%
Cn1ncnc1[C@H]1c2n[nH]c(=O)c3cc(F)cc(c23)N[C@@H]1c1ccc(F)cc1 + CNCc1ccccc1-c1csc(C(C)Nc2nc(C)nc3cc(OC)c(OC)cc23)c1 | > 100 | > 100 | 13.1 | < 0.316 | < 0.316 | 71.4 | 74.5 | – | – | – | – | 58 | 60.6 | – | 42.2 | 46.1 | 0.2 | 0.36 | 1.32 | 0.63 | viability, T/C [31]: 79.2%; viability, T/C [32]: 82%; viability, T/C [33]: 73.4%; viability, T/C [34]: 70%; viability, T/C [35]: 64.8%; viability, T/C [36]: 64.9%; viability, T/C [37]: 61.1%; viability, T/C [38]: 57.6%; viability, T/C [39]: 46.2%; viability, T/C [40]: 54.4%; viability, T/C [41]: 53.7%; viability, T/C [42]: 55.8%; viability, T/C [43]: 0.22%; viability, T/C [44]: 0.9%; viability, T/C [45]: 0.17%; viability, T/C [46]: 0.13%; viability, T/C [47]: 0.39%; viability, T/C [48]: 0.63%; viability, T/C [49]: 0.39%; viability, T/C [50]: 0.11%
